Test results published in patent publication US4317768A, “Dihydropyridine derivatives as stabilizers for vinyl chloride polymers” (priority 1977, dated 1982).

Columns and labels:
[1] = Antioxidant power on a polyvinyl chloride resin, Metrastat oven, 210° C.
Method: (§1) By direct comparison, on a polyvinyl chloride resin, of the antioxidant power of Compound 1 of the invention and that of an antioxidant known as one of the most valuable and frequently used in polyvinyl chloride, namely 2,6-diterbutyl-4-methyl-phenol.
(§2) The antioxidant power of Compound 1 was compared to that of 2,6-diterbutyl-4-methyl-phenol (Compound 2) by using the following resin:
The same trials were carried out in a Metrastat oven at 210° C.

[2] = Polarographic study of the oxidation potential; type: physicochemical; settings: acetonitrile, 0.1 M lithium perchlorate, vitrous carbon electrode, calomel reference
From the text: By a polarographic study of their oxidation potential, compared to well-known antioxidants such as 2,6-diterbutyl-4-methyl-phenol, 2-terbutyl-4-methoxy-phenol, 4-methoxy-phenol and hydroquinone.
Reference electrode: Calomel electrode containing a saturated solution of anhydrous lithium perchlorate as bridge liquid.
Working electrode: Vitrous carbon rotating electrode (2,500 r.p.m.)
Counter-electrode: Platinum electrode
Acetonitrile containing less than 0.1% of water and presenting no polarographic waves between -2.5 V and +2.5 V.
Anhydrous lithium perchlorate containing less than 1% of water.
A 0.1 M solution of lithium perchlorate in acetonitrile, treated and preserved on a 4 A molecular sieve.
Amplitude of exploration: 0 to 2 V
Speed of exploration: 10 mV/second
Sensitivity: 1.25 μA to 50 μA
Mean concentration: about 0.3×10^-3 mol/liter
Between each measurement, the vitrous carbon electrode and the platinum electrode were carefully cleaned with Joseph paper.

[3] = Antioxidant power on a polyvinyl chloride resin, GARDNER method, 185° C.
Method: as §1, §2
The study was carried out according to the GARDNER method, the samples being removed from an oven at 185° C. every 10 minutes over a period of 80 minutes.
The signs + and - have the same meanings as in the previous table and > 2 means that the coloration lies between 2 and 2+.

[4] = as above; remark: listed apart in the source

Cc1cc(C(C)(C)C)c(O)c(C(C)(C)C)c1 [Compound Z, 2,6-diterbutyl-4-methyl-phenol, reference compound]
time of burning (B) ([1]; 0.05 part): 38 '
coloration, GARDNER scale ([1]; 0.05 part, 10 to 20 min): 2
coloration, GARDNER scale ([1]; 0.05 part, 30 to 35 min): 10
coloration, GARDNER scale ([1]; 0.05 part, 35 to 40 min): > 10
time of burning (B) ([1]; 0.1 part): 39 '
coloration, GARDNER scale ([1]; 0.1 part, 10 to 20 min): 2
coloration, GARDNER scale ([1]; 0.1 part, 30 to 35 min): 11
coloration, GARDNER scale ([1]; 0.1 part, 35 to 40 min): > 11
time of burning (B) ([1]; 0.2 part): 39 '
coloration, GARDNER scale ([1]; 0.2 part, 10 to 20 min): 2
coloration, GARDNER scale ([1]; 0.2 part, 30 to 35 min): 11
coloration, GARDNER scale ([1]; 0.2 part, 35 to 40 min): > 11
time of burning (B) ([1]; 0.3 part): 39 '
coloration, GARDNER scale ([1]; 0.3 part, 0 to 10 min): < 1
coloration, GARDNER scale ([1]; 0.3 part, 25 to 30 min): 3
coloration, GARDNER scale ([1]; 0.3 part, 30 to 35 min): 9
coloration, GARDNER scale ([1]; 0.3 part, 35 to 40 min): < 10
time of burning (B) ([1]; 0.4 part): 38 '
coloration, GARDNER scale ([1]; 0.4 part, 10 to 20 min): 2
coloration, GARDNER scale ([1]; 0.4 part, 20 to 25 min): 3
coloration, GARDNER scale ([1]; 0.4 part, 30 to 35 min): 10
coloration, GARDNER scale ([1]; 0.4 part, 35 to 40 min): > 10
time of burning (B) ([1]; 0.5 part): 38 '
coloration, GARDNER scale ([1]; 0.5 part, 10 to 20 min): 2
coloration, GARDNER scale ([1]; 0.5 part, 20 to 25 min): 3
time of burning (B) ([1]; 1.0 part): 38 '
coloration, GARDNER scale ([1]; 1.0 part, 10 to 20 min): 2
coloration, GARDNER scale ([1]; 1.0 part, 25 to 30 min): 5
coloration, GARDNER scale ([1]; 1.0 part, 30 to 35 min): 11
coloration, GARDNER scale ([1]; 1.0 part, 35 to 40 min): > 11
colour of sheets, in words ([1]; from the time zero): pink-coloured sheets
Oxidation potential [2]: 1.11 ± 0.02 volts
coloration, GARDNER scale ([3]; 0.05 part, 0 min): > 1
coloration, GARDNER scale ([3]; 0.05 part, 40 min): > 6
coloration, GARDNER scale ([3]; 0.05 part, 50 min): 7
coloration, GARDNER scale ([3]; 0.05 part, 60 min): 7
coloration, GARDNER scale ([3]; 0.05 part, 70 min): 8
coloration, GARDNER scale ([3]; 0.05 part, 80 min): Burnt
coloration, GARDNER scale ([3]; 0.1 part, 0 min): > 1
coloration, GARDNER scale ([3]; 0.1 part, 30 min): > 5
coloration, GARDNER scale ([3]; 0.1 part, 40 min): > 6
coloration, GARDNER scale ([3]; 0.1 part, 50 min): 7
coloration, GARDNER scale ([3]; 0.1 part, 60 min): 7
coloration, GARDNER scale ([3]; 0.1 part, 70 min): 8
coloration, GARDNER scale ([3]; 0.2 part, 0 min): > 1
coloration, GARDNER scale ([3]; 0.2 part, 40 min): > 6
coloration, GARDNER scale ([3]; 0.2 part, 50 min): 7
coloration, GARDNER scale ([3]; 0.2 part, 60 min): 7
coloration, GARDNER scale ([3]; 0.2 part, 70 min): 8
coloration, GARDNER scale ([3]; 0.3 part, 20 min): > 2
coloration, GARDNER scale ([3]; 0.3 part, 30 min): 6
coloration, GARDNER scale ([3]; 0.3 part, 40 min): 7
coloration, GARDNER scale ([3]; 0.3 part, 50 min): 8
coloration, GARDNER scale ([3]; 0.3 part, 60 min): 8
coloration, GARDNER scale ([3]; 0.4 part, 20 min): 3
coloration, GARDNER scale ([3]; 0.4 part, 30 min): > 6
coloration, GARDNER scale ([3]; 0.4 part, 50 min): 9
coloration, GARDNER scale ([3]; 0.4 part, 60 min): 9
coloration, GARDNER scale ([3]; 0.4 part, 70 min): 9
coloration, GARDNER scale ([3]; 0.5 part, 20 min): 3
coloration, GARDNER scale ([3]; 0.5 part, 30 min): > 6
coloration, GARDNER scale ([3]; 0.5 part, 40 min): > 7
coloration, GARDNER scale ([3]; 0.5 part, 60 min): 8
coloration, GARDNER scale ([3]; 0.5 part, 70 min): 8
coloration, GARDNER scale ([3]; 1.0 part, 20 min): > 3
coloration, GARDNER scale ([3]; 1.0 part, 30 min): 8
coloration, GARDNER scale ([3]; 1.0 part, 40 min): 8
coloration, GARDNER scale ([3]; 1.0 part, 50 min): 8
coloration, GARDNER scale ([3]; 1.0 part, 60 min): 9
coloration, GARDNER scale ([3]; 1.0 part, 70 min): 9
antioxidant power, Compound 1 vs Compound Z, in words [4]: no concentration in Compound Z gives the best results obtained with Compound 1
